Results from publication doi:10.1101/2025.02.03.636334v1 (biorxiv, 2025).
In brackets after ≈: the same amount, converted by molar mass.

Each molecule was assayed on M. tuberculosis H37Rv (assay: microbe, parasite or virus in culture). Details: Mycobacterium tuberculosis, 192 h, read-out: Mtb MIC (µM).

SMILES | MIC
O=c1[nH]c(SCc2cc(F)cc3c2OC(c2ccccc2)OC3)nc2sc3c(c12)CCCC3 (stereo not drawn) [Z13684502] | 100 µM (≈ 48.1 µg/mL)
O=C(Nc1ccc(F)cc1)C(c1ccccc1)N1C(=O)NC(c2ccccc2)(c2ccccc2)C1=O (stereo not drawn) [Z14471296] | 100 µM (≈ 48 µg/mL)
O=C(CN1C(=O)NC(c2ccccc2)(c2ccccc2)C1=O)NC(c1ccccc1)c1ccccc1 [Z14474580] | 100 µM (≈ 47.6 µg/mL)
CC(NC(=O)CN1C(=O)NC(c2ccccc2)(c2ccccc2)C1=O)c1ccc(Cl)cc1 (stereo not drawn) [Z14475560] | 100 µM (≈ 44.8 µg/mL)
O=C(COC(=O)c1cc(-c2ccccc2)nn1-c1ccccc1)NC(c1ccccc1)c1ccccc1 [Z15852380] | 100 µM (≈ 48.8 µg/mL)
O=C(COC(=O)c1cc(-c2cccc3ccccc23)nc2ccccc12)Nc1cc(C(F)(F)F)ccc1N1CCOCC1 [Z18816890] | 100 µM (≈ 58.6 µg/mL)
O=C1NC2(CCCC2)C(=O)N1Cc1cn(-c2ccccc2)nc1-c1ccc(Cl)cc1 [Z25701709] | 100 µM (≈ 42.1 µg/mL)
Cc1cccc(-c2nn(-c3ccccc3)cc2C(=O)Oc2ccccc2-c2nc3ccccc3s2)c1 [Z26889353] | 100 µM (≈ 48.8 µg/mL)
O=C(c1ccc(F)cc1)N1CCN(Cc2nc3sc4c(c3c(=O)[nH]2)CCCC4)CC1 [Z26985512] | 25 µM (≈ 10.7 µg/mL)
Cc1ccc2nc(-c3ccc(NC(=O)c4cc(-c5ccccc5)nn4-c4ccccc4)cc3)sc2c1 [Z27663993] | 100 µM (≈ 48.7 µg/mL)
O=C(/C=C/c1cn(-c2ccccc2)nc1-c1ccc(F)cc1)N1CCCS/C1=N\c1ccccc1 [Z27871611] | 100 µM (≈ 48.3 µg/mL)
O=C(Nc1nc(-c2cccs2)cs1)c1cc(-c2ccccc2)nc2ccccc12 [Z28307167] | 100 µM (≈ 41.4 µg/mL)
Cc1ccc(-c2cc(C(=O)N3CCN(Cc4nc5ccccc5s4)CC3)c3ccccc3n2)cc1 [Z28583171] | 6.2 µM (≈ 2.97 µg/mL)
N#Cc1ccc(CN2CCN(C(=O)c3cc(-c4ccccc4)nn3-c3ccccc3)CC2)cc1 [Z28887309] | 50 µM (≈ 22.4 µg/mL)
CC1(c2ccc3ccccc3c2)NC(=O)N(CC(=O)Nc2nc(-c3ccc4c(c3)CCC4)cs2)C1=O (stereo not drawn) [Z28888852] | 3.1 µM (≈ 1.54 µg/mL)
Cc1cccc(Oc2ccc(NC(=O)c3nn(-c4ccccc4)c(=O)c4ccccc34)cc2)c1 [Z29906038] | 100 µM (≈ 44.7 µg/mL)
O=C(Nc1ccc2oc3ccccc3c2c1)c1ccc(=O)n(Cc2ccccc2)n1 [Z30534850] | 100 µM (≈ 39.5 µg/mL)
CCn1c2ccccc2c2cc(NC(=O)c3cc(-c4ccccc4)nc4ccccc34)ccc21 [Z30593627] | 100 µM (≈ 44.2 µg/mL)
O=C(NNc1ccc(F)cc1)c1cccc(S(=O)(=O)N2CCc3ccccc3C2)c1 [Z30877419] | 100 µM (≈ 42.5 µg/mL)
Cc1ccc(-c2cc(C(=O)Oc3ccc(Oc4ccccc4)cc3)c3ccccc3n2)cc1 [Z30908638] | 100 µM (≈ 43.1 µg/mL)
COc1cc2c(cc1NC(=O)c1ccccc1-c1ccc(C(F)(F)F)cc1)oc1ccccc12 [Z30927947] | 100 µM (≈ 46.1 µg/mL)
O=S(=O)(c1cccc(C(F)(F)F)c1)N1CCN(c2nc(-c3ccccc3)nc3ccccc23)CC1 [Z31104682] | 100 µM (≈ 49.9 µg/mL)
O=C1C(=CNc2cccc(C(F)(F)F)c2)c2ccccc2C(=O)N1c1cccc(C(F)(F)F)c1 [Z31274934] | 6.2 µM (≈ 2.95 µg/mL)
O=C(Nc1ccc(F)c(S(=O)(=O)Nc2cccc(C(F)(F)F)c2)c1)c1cc2ccccc2o1 [Z33249504] | 50 µM (≈ 23.9 µg/mL)
CN1C(=CC=NNC(=O)c2cn(-c3ccccc3)nc2-c2ccccc2)C(C)(C)c2ccccc21 [Z44838075] | 100 µM (≈ 46.2 µg/mL)
O=C(OCc1nc2sc3c(c2c(=O)[nH]1)CCCC3)c1cn(-c2ccccc2)nc1-c1ccccc1 [Z53787257] | 100 µM (≈ 48.3 µg/mL)

SMILES | MIC
O=C(CN1C(=O)NC(c2ccccc2)(c2ccccc2)C1=O)Nc1ccccc1C(=O)NC1CCCC1 [Z54675683] | 100 µM (≈ 49.7 µg/mL)
O=C(COC(=O)c1c2c(nc3ccccc13)CCN(Cc1ccccc1)C2)Nc1c(F)cccc1F [Z55704575] | 100 µM (≈ 48.8 µg/mL)
Cc1nn(-c2ccccc2)c2sc(C(=O)N=C3N=C4C=CC(Br)=CN4Cc4ccccc43)cc12 [Z56688850] | 100 µM (≈ 52.8 µg/mL)
Fc1ccccc1C1Oc2ccccc2C2CC(c3ccc(-c4ccccc4)cc3)=NN21 (stereo not drawn) [Z56764284] | 100 µM (≈ 42 µg/mL)
Fc1ccc(C2Oc3ccccc3C3CC(c4ccc(-c5ccccc5)cc4)=NN32)cc1 (stereo not drawn) [Z56765649] | 25 µM (≈ 10.5 µg/mL)
O=C(N=C1N=C2C=CC=CN2Cc2ccccc21)c1cn(-c2ccccc2)nc1-c1ccc(F)cc1 [Z56787786] | 100 µM (≈ 47.4 µg/mL)
Cc1cc(NC(=O)c2cc(-c3ccc(Cl)cc3)nc3ccccc23)n(-c2ccccn2)n1 [Z56802924] | 100 µM (≈ 44 µg/mL)
Cc1ccc(-c2nn(-c3ccccc3)cc2CCC(=O)Nc2cccc3ccccc23)cc1 [Z56806542] | 100 µM (≈ 43.2 µg/mL)
Cc1ccc2nc(-c3ccc(NC(=O)c4cccc(S(=O)(=O)Nc5cccc(C(F)(F)F)c5)c4)cc3)sc2c1 [Z56810513] | 6.2 µM (≈ 3.52 µg/mL)
Nc1c(-c2ccccc2)c(CN2CCN(c3ccccc3F)CC2)nn1-c1ccc(F)cc1 [Z56903079] | 25 µM (≈ 11.1 µg/mL)
Cc1ccc(-c2cn3c(C(=S)Nc4ccc(F)cc4)c(-c4ccccc4)c4c3n2CCCC4)cc1 [Z57009953] | 100 µM (≈ 48 µg/mL)
O=C(N[C@@H](Cc1ccccc1)c1nc2ccccc2[nH]1)c1ccc(-c2cccc(C(F)(F)F)c2)o1 [Z57992786] | 100 µM (≈ 47.5 µg/mL)
O=C(CN1CCCC1c1ccc2c(c1)OCCCO2)Nc1ccccc1Cc1ccccc1 (stereo not drawn) [Z65195872] | 50 µM (≈ 22.1 µg/mL)
O=C(CN1C(=O)NC2(CCc3ccccc32)C1=O)NC(c1ccccc1)c1ccc(Cl)cc1 (stereo not drawn) [Z65674656] | 100 µM (≈ 46 µg/mL)
Cc1ccc(-c2cc(C(=O)N3CCN(Cc4ccncc4)CC3)c3ccccc3n2)cc1 [Z70806128] | 100 µM (≈ 42.3 µg/mL)
O=C(Nc1ccc(-n2cnc3ccccc32)cc1)c1nn(-c2ccccc2)c(=O)c2ccccc12 [Z82203216] | 100 µM (≈ 45.7 µg/mL)
O=C(Nc1cn(-c2ccccc2)nc1-c1ccc(F)cc1)Nc1cccc2ccccc12 [Z85924883] | 100 µM (≈ 42.2 µg/mL)
O=C(CN1C(=O)NC2(CCc3ccccc32)C1=O)c1c(-c2ccc(F)cc2)[nH]c2ccccc12 (stereo not drawn) [Z89714290] | 25 µM (≈ 11.3 µg/mL)
O=C(CN1C(=O)NC2(CCOc3ccccc32)C1=O)c1c(-c2ccc(F)cc2)[nH]c2ccccc12 (stereo not drawn) [Z89763517] | 3.1 µM (≈ 1.46 µg/mL)
Cc1ccc(-c2nn(Cc3ccccc3)cc2C2NC(=O)c3ccccc3N2)cc1 (stereo not drawn) [Z94792468] | 100 µM (≈ 39.4 µg/mL)
O=C(Nc1ccc2c(c1)OCO2)C1CCN(C(=O)c2nn(-c3ccccc3)c(=O)c3ccccc23)CC1 [Z99494278] | 100 µM (≈ 49.7 µg/mL)
Cc1ccc(-c2cc(C(=O)N3CCC(C(=O)Nc4ccc5c(c4)OCO5)CC3)c3ccccc3n2)o1 [Z99494285] | 100 µM (≈ 48.4 µg/mL)
O=C(c1nn(Cc2ccccc2)c(=O)c2ccccc12)N1CCN(Cc2ccc3c(c2)CCO3)CC1 [Z102666506] | 100 µM (≈ 48.1 µg/mL)
O=C(c1ccc2noc(-c3ccccc3)c2c1)N1CCN(Cc2ccc3c(c2)CCO3)CC1 [Z102669950] | 100 µM (≈ 44 µg/mL)
O=c1[nH]c(CN2CCN(C(c3ccc(F)cc3)c3ccc(F)cc3)CC2)nc2sc3c(c12)CCC3 [Z105382408] | 100 µM (≈ 49.3 µg/mL)
c1cncc(-c2nc(N3CCN(Cc4ccc5c(c4)CCO5)CC3)c3ccccc3n2)c1 [Z128095220] | 25 µM (≈ 10.6 µg/mL)

SMILES | MIC
O=C(NN1C(=O)NC(c2ccccc2)(c2ccccc2)C1=O)c1ccc(-c2ccccc2F)o1 [Z137249014] | 100 µM (≈ 45.5 µg/mL)
O=C(CCc1nc2c(cnn2-c2ccccc2)c(=O)[nH]1)N1CCCC1c1ccc2c(c1)OCCCO2 (stereo not drawn) [Z140090268] | 100 µM (≈ 48.6 µg/mL)
NC(=O)C1Cc2ccccc2CN1C(=O)CCc1c(-c2ccc(F)cc2)[nH]c2ccccc12 (stereo not drawn) [Z143202488] | 100 µM (≈ 44.2 µg/mL)
O=c1[nH]c(SCc2cn(-c3ccccc3)nc2-c2ccccc2)nc2c1cnn2-c1ccccc1 [Z150144208] | 3.1 µM (≈ 1.48 µg/mL)
O=C(c1nn(-c2ccccc2)c(=O)c2ccccc12)N1CCCN(Cc2ccc(Cl)cc2)CC1 [Z212593638] | 50 µM (≈ 23.6 µg/mL)
O=C(Cn1c2ccccc2c(=O)c2ccccc21)NC(c1ccccc1)c1cc2ccccc2o1 (stereo not drawn) [Z229616646] | 100 µM (≈ 45.9 µg/mL)
c1cncc(-c2nc(N3CCN(Cc4ccc5ccccc5c4)CC3)c3ccccc3n2)c1 [Z237483836] | 100 µM (≈ 43.2 µg/mL)
O=C(CCc1ccc(-c2ccccc2)o1)N1CCN(c2ccnc3cc(Cl)ccc23)CC1 [Z285125220] | 100 µM (≈ 44.6 µg/mL)
Cc1ccc(-c2ccsc2C(=O)NNS(=O)(=O)c2ccc3oc(=O)ccc3c2)cc1 [Z299677296] | 100 µM (≈ 44.1 µg/mL)
O=C(CN1CCN(C(=O)c2cccc3ccccc23)CC1)Nc1ccccc1Cc1ccccc1 [Z316384350] | 25 µM (≈ 11.6 µg/mL)
Nc1nn(C(=O)c2cc(S(=O)(=O)Nc3cccc(C(F)(F)F)c3)ccc2Cl)c2ccccc12 [Z381337772] | 100 µM (≈ 49.5 µg/mL)
O=C(c1ccccc1)C1CCN(C2c3ccccc3-c3ccccc32)CC1 [Z646019388] | 100 µM (≈ 35.3 µg/mL)
O=C(NCc1ccccc1)c1ccc(Oc2nc(-c3ccccc3)cc(-c3ccccc3)n2)cc1 [Z1037335532] | 100 µM (≈ 45.8 µg/mL)
c1ccc(-c2ccc(Oc3nc(-c4ccccc4)cc(-c4ccccc4)n3)cc2)cc1 [Z1037335802] | 100 µM (≈ 40 µg/mL)
c1ccc(C(c2ccccc2)N2CCN(c3nc4ccccc4c4nc(-c5cccnc5)nn34)CC2)cc1 [Z1157836627] | 100 µM (≈ 49.8 µg/mL)
Clc1ccc(-c2nc(NN=Cc3ccc4ccccc4n3)nc3ccccc23)cc1 [Z1187818773] | 100 µM (≈ 41 µg/mL)
O=C(c1ccccc1)c1ccc(Cl)cc1Nc1cc(-c2ccccc2)c2ccc(Cl)cc2n1 [Z1386458621] | 100 µM (≈ 46.9 µg/mL)
Cc1ccc2c(-c3ccccc3)nc(NN=Cc3c[nH]c4ccccc34)nc2c1 [Z1409330734] | 50 µM (≈ 18.9 µg/mL)
Clc1ccc2nc(N3N=C(c4ccccc4)CC3c3cccc(Br)c3)nc(-c3ccccc3)c2c1 (stereo not drawn) [Z1558470019] | 100 µM (≈ 54 µg/mL)
Cc1ccc(-c2nc(N3N=C(c4cccc(Br)c4)CC3c3cccc(Br)c3)nc3ccccc23)cc1 (stereo not drawn) [Z1558581154] | 100 µM (≈ 59.8 µg/mL)
Cc1cccc(C2CC(c3ccc(N(C)C)cc3)=NN2c2nc(-c3ccc(Cl)cc3)c3ccccc3n2)c1 (stereo not drawn) [Z1898794184] | 100 µM (≈ 51.8 µg/mL)
Oc1nc2cc(Cl)ccc2c(-c2ccccc2)c1-c1cc(-c2ccccc2)c2ccc(Cl)cc2n1 [Z2010009645] | 100 µM (≈ 49.3 µg/mL)
Clc1ccc2c(-c3ccccc3)cc(-c3c(Cl)nc4ccc(Br)cc4c3-c3ccccc3)nc2c1 [Z2039275273] | 100 µM (≈ 55.6 µg/mL)
O=C1c2ccccc2C(=O)N1C(Cc1ccccc1)c1nc2c3ccccc3ncn2n1 (stereo not drawn) [Z2176371175] | 100 µM (≈ 41.9 µg/mL)
O=C(c1ccccc1)c1ccc(Cl)cc1Nc1cc(-c2ccccc2)c2cc(Cl)ccc2n1 [Z2196034878] | 100 µM (≈ 46.9 µg/mL)
Cc1ccc2c(-c3ccccc3)nc(NN=Cc3cnc4ccccc4n3)nc2c1 [Z2488926519] | 100 µM (≈ 39 µg/mL)
